Results: patent US5804164A, “Water-soluble lipophilic contrast agents” (Research Corporation Technologies, Inc., priority 1996, dated 1998)

Assay: Relaxivity of dialyzed liposomal Gd(BME-DTTA)
Type: physicochemical
Settings: dialyzed against saline pH 7.4 with HEPES and Chelex-100
Description: In this comparative example, the gadolinium complex of N^3,N^6 -bis(2'-myristoyloxyethyl)-1,8-dioxo-triethylenetetraamine-N,N,N',N'-tetraacetic acid [Gd(BME-DTTA)] was prepared and used for cardiac tissue imaging. Specifically, Gd(BME-DTTA) was synthesized and incorporated into liposomes using the procedure described in the Elgavish et al. article entitled "Fatty-acyl iminopolycarboxylates; lipophilic bifunctional contrast agents for NMR imaging", Magn. Reson. Med. 1991; Vol 22; pp. 57-67.
The liposomal Gd(BME-DTTA) was dialyzed at 4° C. for 24 hours against a saline solution (pH 7.4) that contained 0.9 weight % NaCl, 20 mmol/L HEPES, and 0.5 weight % Chelex-100 to remove any weakly bound Gd ions. […] (mmol/L)^-1.

relaxivity: 27.1±0.3 s^-1. (mmol/L)^-1
Substance: gadolinium complex of N^3,N^6 -bis(2'-myristoyloxyethyl)-1,8-dioxo-triethylenetetraamine-N,N,N',N'-tetraacetic acid [Gd(BME-DTTA)]
